From patent EP0326331B1, “Substituted quinolines and cinnolines” (Dow AgroSciences LLC, priority 1988, dated 1989)

How the values were obtained:
Assay type in all cases: in vivo
[1] = system: Puccinia recondita tritici (leaf rust); experiment: Test 1 greenhouse foliar spray screen, leaf rust on wheat; details: disease control rating, foliar spray on wheat, 400 ppm (+++ at 100 ppm)
[2] = system: Erysiphe graminis tritici (powdery mildew); experiment: Test 1 greenhouse foliar spray screen, powdery mildew on wheat; details: disease control rating, foliar spray on wheat, 400 ppm (+++ at 100 ppm)
[3] = system: southern armyworm (Spodopetra eridania Cramer); experiment: Mite/insect screen, SAW; details: Spodoptera eridania, percent mortality, SAW, read-out: SAW RESULTS %; for mortality at 200 ppm: SM & MA RATE 200 PPM; for mortality at 400 ppm: SM & MA RATE 400 PPM
Procedure, shortened: (§1)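 Compounds dissolved in acetone/alcohol (50:50) with TOXIMUL R and S emulsifiers, diluted in water to test concentrations, and sprayed to runoff on both leaf surfaces at 10 psi, then dried 1 h. For armyworm, excised treated leaves were offered to larvae; percent mortality scored after standard exposure periods.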

[4] = system: Pyricularia oryzae (rice blast); experiment: whole plant or invertebrate; details: disease control rating, foliar spray on rice, 400 ppm (+++ at 100 ppm)
[5] = system: Twospotted spider mites (Tetranychus urticae Koch); experiment: Mite/insect screen, SM; details: for mortality at 200 ppm / mortality at 400 ppm: Tetranychus urticae, percent mortality, SAW, read-out: SM RESULTS %; for mortality at 200 ppm: SM & MA RATE 200 PPM; for mortality at 400 ppm: SM & MA RATE 400 PPM
Procedure, shortened: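 Compounds dissolved in 50:50 acetone/alcohol containing sulfonate/nonionic emulsifier blends, then diluted with water to the indicated concentrations. Leaves sprayed on both surfaces to runoff at 10 psi and dried one hour. Percent mortality scored after standard exposure periods.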

[6] = system: melon aphids (Aphis gossypii Glover); experiment: Mite/insect screen, MA; details: Aphis gossypii, percent mortality, SAW, read-out: MA RESULTS %; for mortality at 200 ppm: SM & MA RATE 200 PPM; for mortality at 400 ppm: SM & MA RATE 400 PPM
Procedure, shortened: as §1

[7] = system: Pseudoperonospora cubensis (downy mildew); experiment: Test 1 greenhouse foliar spray screen, downy mildew on squash; details: disease control rating, foliar spray on squash, 400 ppm (+++ at 100 ppm)
[8] = system: corn rootworm; experiment: Mite/insect screen, CRW; details: percent mortality, read-out: CRW RESULTS %; for mortality at 12 ppm: CRW RATE 12.00 PPM; for mortality at 24 ppm: CRW RATE 24.00 PPM
Procedure, shortened: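 Compounds dissolved in 50:50 acetone/alcohol with TOXIMUL R and S emulsifiers (23 and 13 g/L), then diluted in water to the stated test concentrations. Percent mortality of corn rootworm scored after standard exposure periods.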

[9] = system: Botrytis cinerea (gray mold); experiment: Test 1 greenhouse foliar spray screen, gray mold on grape berries; details: disease control rating, spray on grape berries, 400 ppm (+++ at 100 ppm)

## CC(=O)N(CCc1c(C)c(C)c(C)c(C)c1C)c1ccnc2c(F)cccc12 [Example 131, N-[2-(pentamethylphenyl)ethyl]-N-(8-fluoro-4-quinolinyl)acetamide]
[1]
  LEAF RUST: - (0-19% control at 400 ppm)
[2]
  POWD MDEW: - (0-19% control at 400 ppm)
[3]
  mortality at 200 ppm: 0%
  mortality at 400 ppm: 0%
[4]
  RICE BLAST: - (0-19% control at 400 ppm)
[5]
  mortality at 200 ppm: 0%
  mortality at 400 ppm: 0%
[6]
  mortality at 200 ppm: 0%
  mortality at 400 ppm: 0%
[7]
  DOWN MDEW: + (20-89% control at 400 ppm)
[8]
  mortality at 12 ppm: 0%
  mortality at 24 ppm: 0%
[9]
  GRAY MOLD: - (0-19% control at 400 ppm)

## CC(=O)N(CCc1ccccc1Cl)c1ccnc2c(Cl)cccc12 [Example 132, N-[2-(2-chlorophenyl)ethyl]-N-(8-chloro-4-quinolinyl)acetamide]
[1]
  LEAF RUST: - (0-19% control at 400 ppm)
[2]
  POWD MDEW: - (0-19% control at 400 ppm)
[3]
  mortality at 200 ppm: 0%
  mortality at 400 ppm: 0%
[4]
  RICE BLAST: - (0-19% control at 400 ppm)
[5]
  mortality at 200 ppm: 0%
  mortality at 400 ppm: 0%
[6]
  mortality at 200 ppm: 0%
  mortality at 400 ppm: 0%
[7]
  DOWN MDEW: - (0-19% control at 400 ppm)
[8]
  mortality at 12 ppm: 0%
  mortality at 24 ppm: 0%
[9]
  GRAY MOLD: - (0-19% control at 400 ppm)

## COc1ccc(CCNc2ccnc3c(C)c(C)ccc23)cc1 [Example 133, N-[2-(4-methoxyphenyl)ethyl]-7,8-dimethyl-4-quinolinamine]
[1]
  LEAF RUST: + (20-89% control at 400 ppm)
[2]
  POWD MDEW: - (0-19% control at 400 ppm)
[3]
  mortality at 200 ppm: 0%
  mortality at 400 ppm: 0%
[4]
  RICE BLAST: + (20-89% control at 400 ppm)
[5]
  mortality at 200 ppm: 0%
  mortality at 400 ppm: 0%
[6]
  mortality at 200 ppm: 0%
  mortality at 400 ppm: 0%
[7]
  DOWN MDEW: + (20-89% control at 400 ppm)
[8]
  mortality at 12 ppm: 0%
  mortality at 24 ppm: 0%
[9]
  GRAY MOLD: - (0-19% control at 400 ppm)

## Clc1ccc2c(NCCCc3ccc(-c4ccccc4)cc3)ccnc2c1 [Example 134, 7-chloro-N-[3-(1,1'-biphenyl)-4-ylpropyl]-4-quinolinamine]
[1]
  LEAF RUST: + (20-89% control at 400 ppm)
[2]
  POWD MDEW: + (20-89% control at 400 ppm)
[3]
  mortality at 400 ppm: 0%
[4]
  RICE BLAST: ++ (90-100% control at 400 ppm)
[5]
  mortality at 400 ppm: 0%
[6]
  mortality at 400 ppm: 0%
[7]
  DOWN MDEW: +++ (90-100% control at 100 ppm)
[8]
  mortality at 24 ppm: 0%
[9]
  GRAY MOLD: - (0-19% control at 400 ppm)

## Fc1cccc2c(NCCCc3ccc(-c4ccccc4)cc3)ccnc12 [Example 137, N-[3-(1,1'-biphenyl)-4-ylpropyl]-8-fluoro-4-quinolinamine]
[1]
  LEAF RUST: + (20-89% control at 400 ppm)
[2]
  POWD MDEW: + (20-89% control at 400 ppm)
[3]
  mortality at 400 ppm: 100%
[4]
  RICE BLAST: +++ (90-100% control at 100 ppm)
[5]
  mortality at 400 ppm: 80%
[5]; summary statement in the description
  activity as miticides: particularly excellent activity
[6]
  mortality at 400 ppm: 80%
[7]
  DOWN MDEW: +++ (90-100% control at 100 ppm)
[8]
  mortality at 24 ppm: 0%
[9]
  GRAY MOLD: - (0-19% control at 400 ppm)

## CC(CCc1ccccc1)Nc1ccnc2c(F)cccc12 (stereo not drawn) [Example 138, 8-fluoro-N-(1-methyl-3-phenylpropyl)-4-quinolinamine]
[1]
  LEAF RUST: + (20-89% control at 400 ppm)
[2]
  POWD MDEW: - (0-19% control at 400 ppm)
[3]
  mortality at 400 ppm: 0%
[4]
  RICE BLAST: + (20-89% control at 400 ppm)
[5]
  mortality at 400 ppm: 0%
[6]
  mortality at 400 ppm: 0%
[7]
  DOWN MDEW: +++ (90-100% control at 100 ppm)
[8]
  mortality at 24 ppm: 0%
[9]
  GRAY MOLD: - (0-19% control at 400 ppm)

## CC(=O)N(CCCCc1ccc(Cl)cc1)c1ccnc2c(F)cccc12 [Example 141, N-[4-(4-chlorophenyl)butyl]-N-(8-fluoro-4-quinolinyl)acetamide]
[1]
  LEAF RUST: + (20-89% control at 400 ppm)
[2]
  POWD MDEW: - (0-19% control at 400 ppm)
[3]
  mortality at 200 ppm: 0%
  mortality at 400 ppm: 0%
[4]
  RICE BLAST: ++ (90-100% control at 400 ppm)
[5]
  mortality at 200 ppm: 0%
  mortality at 400 ppm: 0%
[6]
  mortality at 200 ppm: 0%
  mortality at 400 ppm: 0%
[7]
  DOWN MDEW: + (20-89% control at 400 ppm)
[8]
  mortality at 12 ppm: 0%
  mortality at 24 ppm: 0%
[9]
  GRAY MOLD: - (0-19% control at 400 ppm)

## Cc1ccc(C)c2c(NCCC3=CCCCC3)ccnc12 [Example 142, N-[2-(1-cyclohexenyl)ethyl]-5,8-dimethyl-4-quinolinamine]
[1]
  LEAF RUST: ++ (90-100% control at 400 ppm)
[2]
  POWD MDEW: - (0-19% control at 400 ppm)
[3]
  mortality at 200 ppm: 0%
  mortality at 400 ppm: 0%
[4]
  RICE BLAST: ++ (90-100% control at 400 ppm)
[5]
  mortality at 200 ppm: 0%
  mortality at 400 ppm: 0%
[6]
  mortality at 200 ppm: 0%
  mortality at 400 ppm: 0%
[7]
  DOWN MDEW: +++ (90-100% control at 100 ppm)
[8]
  mortality at 12 ppm: 0%
  mortality at 24 ppm: 0%
[9]
  GRAY MOLD: - (0-19% control at 400 ppm)

## CC(=O)N(CCC1=CCCCC1)c1ccnc2ccc(F)cc12 [Example 146, N-[2-(1-cyclohexenyl)ethyl]-N-(6-fluoro-4-quinolinyl)acetamide]
[1]
  LEAF RUST: - (0-19% control at 400 ppm)
[2]
  POWD MDEW: - (0-19% control at 400 ppm)
[3]
  mortality at 200 ppm: 0%
  mortality at 400 ppm: 0%
[4]
  RICE BLAST: - (0-19% control at 400 ppm)
[5]
  mortality at 200 ppm: 0%
  mortality at 400 ppm: 0%
[6]
  mortality at 200 ppm: 0%
  mortality at 400 ppm: 0%
[7]
  DOWN MDEW: + (20-89% control at 400 ppm)
[8]
  mortality at 12 ppm: 0%
  mortality at 24 ppm: 0%
[9]
  GRAY MOLD: - (0-19% control at 400 ppm)

## OC(CNc1ccnc2c(F)cccc12)c1ccc2ccccc2c1 (stereo not drawn) [Example 157, α-[[(8-fluoro-4-quinolinyl)amino]methyl]-2-naphthalenemethanol]
[1]
  LEAF RUST: ++ (90-100% control at 400 ppm)
[2]
  POWD MDEW: - (0-19% control at 400 ppm)
[3]
  mortality at 400 ppm: 100%
[4]
  RICE BLAST: ++ (90-100% control at 400 ppm)
[5]
  mortality at 400 ppm: 80%
[6]
  mortality at 400 ppm: 0%
[7]
  DOWN MDEW: +++ (90-100% control at 100 ppm)
[8]
  mortality at 24 ppm: 0%
[9]
  GRAY MOLD: - (0-19% control at 400 ppm)

## CC(=O)N(CCC1=CCCCC1)c1ccnc2c(C)ccc(C)c12 [Example 160, N-[2-(1-cyclohexenyl)ethyl]-N-(5,8-dimethyl-4-quinolinyl)acetamide]
[1]
  LEAF RUST: - (0-19% control at 400 ppm)
[2]
  POWD MDEW: - (0-19% control at 400 ppm)
[3]
  mortality at 200 ppm: 0%
  mortality at 400 ppm: 0%
[4]
  RICE BLAST: + (20-89% control at 400 ppm)
[5]
  mortality at 200 ppm: 0%
  mortality at 400 ppm: 0%
[6]
  mortality at 200 ppm: 0%
  mortality at 400 ppm: 0%
[7]
  DOWN MDEW: - (0-19% control at 400 ppm)
[8]
  mortality at 12 ppm: 0%
  mortality at 24 ppm: 0%
[9]
  GRAY MOLD: - (0-19% control at 400 ppm)

## CC(=O)N(CCC1CCCCC1)c1ccnc2c(F)cccc12 [Example 161, N-(2-cyclohexylethyl)-N-(8-fluoro-4-quinolinyl)acetamide]
[1]
  LEAF RUST: - (0-19% control at 400 ppm)
[2]
  POWD MDEW: + (20-89% control at 400 ppm)
[3]
  mortality at 200 ppm: 0%
  mortality at 400 ppm: 0%
[4]
  RICE BLAST: + (20-89% control at 400 ppm)
[5]
  mortality at 200 ppm: 0%
  mortality at 400 ppm: 0%
[6]
  mortality at 200 ppm: 0%
  mortality at 400 ppm: 80%
[7]
  DOWN MDEW: + (20-89% control at 400 ppm)
[8]
  mortality at 12 ppm: 0%
  mortality at 24 ppm: 40%
[9]
  GRAY MOLD: - (0-19% control at 400 ppm)
